Measured values: article PMC10594875, “One-Pot De Novo Synthesis of [4Fe-4S] Proteins Using a Recombinant SUF System under Aerobic Conditions” (ACS Synthetic Biology, 2023)

Target: T1, Aconitase (AcnA) (Escherichia coli, UniProt P25516)
T1 construct: cell-free (PUREfrex) synthesis, N-His6 tag removed with HRV protease, [4Fe-4S] cluster matured by SUF system
Experiment: LC-MS of citrate consumption, isocitrate dehydrogenase-coupled
Assay type: biochemical
Details: coupled with NADP-dependent isocitrate dehydrogenase

T1 sequence (P25516 2-891): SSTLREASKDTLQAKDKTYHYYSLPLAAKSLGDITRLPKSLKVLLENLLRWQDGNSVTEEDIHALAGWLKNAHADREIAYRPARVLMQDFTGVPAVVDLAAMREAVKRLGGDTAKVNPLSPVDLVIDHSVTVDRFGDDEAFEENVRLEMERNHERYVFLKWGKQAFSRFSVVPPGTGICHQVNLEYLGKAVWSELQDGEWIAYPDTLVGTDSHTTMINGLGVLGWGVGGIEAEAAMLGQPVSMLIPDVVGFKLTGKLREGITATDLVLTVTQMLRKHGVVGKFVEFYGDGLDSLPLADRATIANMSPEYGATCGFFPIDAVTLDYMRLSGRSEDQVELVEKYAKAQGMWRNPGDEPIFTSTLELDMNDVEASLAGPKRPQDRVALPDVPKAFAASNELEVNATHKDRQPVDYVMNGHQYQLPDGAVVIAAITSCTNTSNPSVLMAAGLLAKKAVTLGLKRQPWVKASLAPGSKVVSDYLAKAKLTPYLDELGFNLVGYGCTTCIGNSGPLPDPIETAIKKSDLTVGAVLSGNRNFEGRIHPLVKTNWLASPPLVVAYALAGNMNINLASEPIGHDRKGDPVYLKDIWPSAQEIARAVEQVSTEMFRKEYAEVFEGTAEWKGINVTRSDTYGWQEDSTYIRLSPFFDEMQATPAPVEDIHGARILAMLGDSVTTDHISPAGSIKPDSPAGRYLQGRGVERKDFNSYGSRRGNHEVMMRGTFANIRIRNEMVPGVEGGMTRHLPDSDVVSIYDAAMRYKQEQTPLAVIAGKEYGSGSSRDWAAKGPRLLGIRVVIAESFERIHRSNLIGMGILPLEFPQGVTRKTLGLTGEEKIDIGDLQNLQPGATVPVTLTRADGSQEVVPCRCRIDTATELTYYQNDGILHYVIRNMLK

Q: Which “LC-MS of citrate consumption, isocitrate dehydrogenase-coupled” value does the source give for `O=C(O)CC(O)(CC(=O)O)C(=O)O` [citrate] here?
A: The value was “concurring citrate consumption and alpha-ketoglutarate production in the assays with AcnA purified”.
